Results from publication PMC4695662 (BioMed Research International, 2015).

Experiments:
Oat1 and Oat3 [1] = assay: Accumulation of PAH in kidney tissue; assay type: in vivo, mice; conditions: all sampling times after i.v. PAH, compared with C-1 (p < 0.01); in words
Procedure: The mice renal homogenate was prepared by Shihana et al. protocol. Each right kidney was cut into small pieces, which were put into a glass homogenizing tube containing PBS (200 mM sucrose, 137 mM NaCl, 2.7 mM KCl, 10 mM Na2HPO4, and 2 mM NaH2PO4; pH 7.4) at a ratio of 8 mL/g wet weight and then were homogenized with a motor-driven Teflon pestle (1000 rpm/min) and spun down for 30 min at 20,000 ×g. The supernatant was isolated and then stored at −20°C until determination. The kidney homogenates were prepared from each group which was removed at 1, 5, 10, 20, and 30 min after i.v. PAH. Protein content of kidney homogenates was quantified using the Lowry Folin phenol reagent (Nanjing Jiancheng Bioengineering Institute, Ltd., China, Lot. 130918). The concentrations of PAH in kidney homogenate were determined the same as that in the sera.

Oat1 and Oat3 [2] = assay: PAH uptake by mice renal slices after treatment; assay type: in vivo; conditions: 2 mM PAH, 20 min, 37°C, slices from mice treated twice a day for five days; in words
Procedure: The uptake of PAH by mice renal slices was investigated using the procedures described by Henderson and Lindup. Briefly, mice were executed, and the kidneys were immediately harvested, decapsulated, and placed in an ice-cold oxygenated rinse PBS (pH 7.4). Renal slices (weight 10–20 mg/slice) were cut freehand with Gillette valet strip blades to about 0.2 inches in length (Sabre International Products Ltd., Reading, UK). Slices of one kidney were preincubated for 5 min at 37°C and incubated in a 12-well plate with 1 mL of oxygenated PAH-buffer which consisted of 2 mM PAH, 97 mM NaCl, 40 mM KCl, 0.74 mM CaCl2, and 7.5 mM sodium phosphate-chloride buffer in each well. The uptake study was carried out at 37°C in the shaking bath. After incubating for 20 min, each slice was rapidly removed from the PAH-buffer, immediately inactivated the proteins with trichloroacetic acid, was washed in ice-cold saline, was blotted on filter paper, was weighed, and then was homogenized at a ratio of 3 mL/g wet weight. The following operations were the same as described in Section 2.6.

Oat1 mRNA = Oat1 mRNA expression in kidney by real-time PCR; assay type: in vivo; conditions: renal cortex of mice
Procedure: (§1) Total RNA was extracted using Trizol reagent from renal cortical tissues according to the manufacturer's instructions and RNA concentration and purity were evaluated by measuring the ratio of A260 nm/A280 nm. First-strand cDNA was generated by adding 1 μg total RNA; 2 μL 5x gDNA Eraser Buffer; 1 μL gDNA Eraser; 5 μL RNase Free dH2O (step 1: 42°C, 2 min for genomic DNA elimination reaction); […]; 1 μL Prime Script RT Enzyme Mix I; 1 μL RT Primer Mix; 4 μL RNase Free dH2O; and 10 μL reaction solution from step 1, which were used to reach a total reaction volume of 20 μL. The condition of reverse-transcription (RT) reaction was as follows, 15 min at 37°C and 85°C for 5 s, and stored at 4°C. […]
(§2) The real-time quantitative PCR was conducted in ABI 7500 (Applied Biosystems, USA) and the cycling program was set at 1 cycle of predenaturation at 95°C for 30 s and then 40 cycles at 95°C for 15 s, 56°C for 30 s, and 72°C for 31 s. […] Quantification of the target cDNAs in all samples was normalized to GAPDH […] (Cttarget − CtGAPDH = ΔCt) and the difference in expression for each target cDNA in the investigated groups was expressed to the amount in the water control group (ΔCttreated − ΔCtcontrol = ΔΔCt). Fold changes in target gene expression were determined by taking 2 to the power of this number (2^−ΔΔCt).

Oat3 mRNA = Oat3 mRNA expression in kidney by real-time PCR; assay type: in vivo; conditions: renal cortex of mice
Procedure: as §1, §2

Oat1 and Oat3 [3] = assay: PAH pharmacokinetic studies in mice sera after oral treatment with investigational samples; conditions: in words, versus control
Procedure: All mice were given standard mice chows and pure water ad libitum and housed at 20~26°C.
On the experiment day, 60 min after the last administration of investigational samples, all mice were single i.v. PAH (30 mg/kg B.W., aqueous solution), respectively, according to the protocol of Bertani et al. [16] and blood samples were collected from 10 mice/group by euthanization in each time point at 1.0, 2.5, 5.0, 7.5, 10.0, 20.0, and 30.0 min after PAH injection. Blood samples were centrifuged at 2000 ×g for 5 min. The obtained sera were stored at −20°C until measurement.
The concentration of PAH in sera was determined according to Saikan and Kiguchi [19] method. The sera concentration versus time curve for PAH, for each individual animal, was fitted with PK software DAS 2.0. The data were fitted to a biexponential curve. The choice of the best fit was based on the determination of coefficient values (R ^2) and LSD test [20]. All fits should have R ^2 values > 0.98. […] Concentration of PAH in serum was measured using the method described by Di Giusto et al. [21].

[Cl][Hg][Cl] [HgCl2]
PAH accumulations in the kidneys (Oat1 and Oat3 [1]): observably increased | Active uptake of PAH by renal slices (Oat1 and Oat3 [2]): interfered with the PAH uptake | Reduction of Oat1 mRNA expression (Oat1 mRNA): 40% | Decrease in Oat3 mRNA level (Oat3 mRNA): 40% | Change of area under the curve (AUC0–30 min) of serum PAH (Oat1 and Oat3 [3]): significant increase | Change of total volume of distribution (VdT) of serum PAH (Oat1 and Oat3 [3]): obvious decrease
